Values of other authors as cited in patent publication US20220347185A1, “IBOGAINE FORMULATIONS” (CAAMTECH, INC., priority 2019, published 2022).

Legend:
mice = settings: da Silva et al. 2006
humans = settings: Mash et al. 2000
rats = settings: single dose, Rodriguez et al. 2020
[1] = Dzoljic et al. 1988
heroin addicts = settings: 1962

Compound | anticonvulsive effect (mice) | antidepressive effect (mice) | anxiolytic effect (mice) | depressive symptoms (humans) | antidepressant effects (rats) | withdrawal from narcotics addiction [1] | effectiveness of multiple administrations versus a single dose (rats and mice; additional study results) | self-administration of opiates (rats and mice; rats and mice) | cravings and withdrawal symptoms (heroin addicts) | treating substance addiction (review papers and meta-analyses) | treating opioid addiction (several current studies)
CO[C@H]1C=C2[C@H]3CN(Cc4cc5c(cc43)OCO5)[C@H]2C[C@@H]1O [montanine] | anticonvulsive | antidepressive effects | anxiolytic |  |  |  |  |  |  |  | 
CC[C@H]1C[C@@H]2C[C@H]3c4[nH]c5ccc(OC)cc5c4CCN(C2)[C@@H]13 [ibogaine] |  |  |  | significantly decreased depressive symptoms | caused antidepressant effects | relieve withdrawal from narcotics addiction | more effective in multiple administrations over time than from a single dose | reduce or interrupt the self-administration of opiates | marked reductions in their cravings and withdrawal symptoms | effective for treating substance addiction | effective for treating opioid addiction
CC[C@H]1C[C@@H]2C[C@H]3c4[nH]c5ccc(O)cc5c4CCN(C2)[C@@H]13 [noribogaine] |  |  |  |  | caused antidepressant effects |  |  |  |  |  | 
